Experimental data as given in US20230219921A1, “KCNT1 INHIBITORS AND METHODS OF USE” (Praxis Precision Medicines, Inc., priority 2020, published 2023).

Molecular target: T1, KCNT1 (KNa1.1, Slack) (Homo sapiens, UniProt Q5JUK3)
T1 construct: expressed in transfected cells; host or cells: HEK-TREX (tetracycline-inducible HEK cell line)
T1 sequence (Q5JUK3 1-1230): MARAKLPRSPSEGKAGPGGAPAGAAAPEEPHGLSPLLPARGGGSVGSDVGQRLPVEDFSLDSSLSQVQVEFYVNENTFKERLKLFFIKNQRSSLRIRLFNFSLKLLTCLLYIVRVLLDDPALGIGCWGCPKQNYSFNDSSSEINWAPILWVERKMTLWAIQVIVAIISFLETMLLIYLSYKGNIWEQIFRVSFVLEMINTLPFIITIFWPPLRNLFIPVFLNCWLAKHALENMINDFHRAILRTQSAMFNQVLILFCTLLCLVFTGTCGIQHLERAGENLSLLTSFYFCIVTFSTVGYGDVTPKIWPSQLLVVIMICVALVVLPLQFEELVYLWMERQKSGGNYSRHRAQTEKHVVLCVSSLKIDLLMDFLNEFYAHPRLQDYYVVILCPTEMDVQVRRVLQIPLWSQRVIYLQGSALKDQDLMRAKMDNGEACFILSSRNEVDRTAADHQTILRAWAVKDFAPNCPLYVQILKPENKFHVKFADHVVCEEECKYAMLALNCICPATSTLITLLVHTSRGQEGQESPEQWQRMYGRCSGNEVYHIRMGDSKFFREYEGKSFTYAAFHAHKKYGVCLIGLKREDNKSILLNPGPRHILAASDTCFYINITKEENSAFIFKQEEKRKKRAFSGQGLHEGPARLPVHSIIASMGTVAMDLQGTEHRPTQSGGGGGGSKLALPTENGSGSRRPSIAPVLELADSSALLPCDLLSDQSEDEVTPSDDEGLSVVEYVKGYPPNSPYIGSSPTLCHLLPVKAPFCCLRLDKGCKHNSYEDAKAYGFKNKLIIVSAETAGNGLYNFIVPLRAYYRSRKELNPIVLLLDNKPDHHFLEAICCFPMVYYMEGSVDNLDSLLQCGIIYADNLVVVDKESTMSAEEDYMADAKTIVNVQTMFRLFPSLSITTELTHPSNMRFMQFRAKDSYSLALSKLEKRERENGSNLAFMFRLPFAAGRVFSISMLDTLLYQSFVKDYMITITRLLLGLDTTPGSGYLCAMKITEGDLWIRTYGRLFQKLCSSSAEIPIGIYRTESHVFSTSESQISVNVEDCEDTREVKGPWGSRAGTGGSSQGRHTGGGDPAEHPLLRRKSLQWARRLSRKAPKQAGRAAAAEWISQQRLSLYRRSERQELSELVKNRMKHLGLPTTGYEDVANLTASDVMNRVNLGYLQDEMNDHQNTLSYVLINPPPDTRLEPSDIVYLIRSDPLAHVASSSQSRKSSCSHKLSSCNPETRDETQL
Test: KCNT1 patch clamp assay (SyncroPatch 384PE automated patch clamp)
Type: cell-based
Details: tetracycline inducible cell line (HEK-TREX); perforated patch mode; step from -80 mV to 0 mV; room temperature; read-out: KCNT1-WT IC50
Procedure: Inhibition of KCNT1 (KNa1.1, Slack) was evaluated using a tetracycline inducible cell line (HEK-TREX). Currents were recorded using the SyncroPatch 384PE automated, patch clamp system. Pulse generation and data collection were performed with PatchController384 V1.3.0 and DataController384 V1.2.1 (Nanion Technologies). The access resistance and apparent membrane capacitance were estimated using built-in protocols. Current were recorded in perforated patch mode (10 μM escin) from a population of cells. The cells were lifted, triturated, and resuspended at 800,000 cells/ml. The cells were allowed to recover in the cell hotel prior to experimentation. Currents were recorded at room temperature. The external solution contained the following (in mM): NaCl 105, NMDG 40, KCl 4, MgCl2 1, CaCl2 5 and HEPES 10 (pH=7.4, Osmolarity ˜300 mOsm). The extracellular solution was used as the wash, reference and compound delivery solution. The internal solution contained the following (in mM): NaCl 70, KF 70, KCl 10, EGTA 5, HEPES 5 and Escin 0.01 (pH=7.2, Osmolarity ˜295 mOsm). Escin is made at a 5 mM stock in water, aliquoted, and stored at −20° C. The compound plate was created at 2× concentrated in the extracellular solution. The compound was diluted to 1:2 when added to the recording well. The amount of DMSO in the extracellular solution was held constant at the level used for the highest tested concentration. A holding potential of −80 mV with a 100 ms step to 0 mV was used. Mean current was measured during the step to 0 mV. […] The average mean current from 3 sweeps was calculated and the % inhibition of each compound was calculated. The % Inhibition as a function of the compound concentration was fit with a Hill equation to derive IC50, slope, min and max parameters. If KCNT1 inhibition was less than 50% at the highest tested concentration or if an IC50 could not be calculated, then a percent inhibition was reported in place of the IC50.
In this table, “A” indicates IC50 of less than or equal to 1 μM; “B” indicates inhibition of between 1 μM to 20 μM; and “C” indicates inhibition of greater than or equal to 20 μM.

`CNS(=O)(=O)c1ccc(C(=O)NCc2ccc(C3(C(F)(F)F)CC3)cc2)s1` [Compound 36, 5-(N-methylsulfamoyl)-N-(4-(1-(trifluoromethyl)cyclopropyl)benzyl)thiophene-2-carboxamide] and `CNS(=O)(=O)c1ccc(C(=O)NCc2ccc(OCC(F)(F)F)cc2)s1` [Compound 35, 5-(N-methylsulfamoyl)-N-(4-(2,2,2-trifluoroethoxy)benzyl)thiophene-2-carboxamide] cannot be ordered by IC50: at most 1 µM for the first, 1 to 20 µM for the second.

`CS(=O)(=O)c1ccc(C(=O)NCc2ccc(Cl)cc2Cl)s1` [Compound 6, N-(2,4-dichlorobenzyl)-5-(methylsulfonyl)thiophene-2-carboxamide] and `CCS(=O)(=O)c1ccc(C(=O)NCc2ccc(Cl)cc2Cl)s1` [Compound 16, N-(2,4-dichlorobenzyl)-5-(ethylsulfonyl)thiophene-2-carboxamide] cannot be ordered by IC50: at most 1 µM for the first, at most 1 µM for the second.

`CNS(=O)(=O)c1ccc(C(=O)NCc2ccc(C(C)(C)C#N)cc2)s1` [Compound 38, N-(4-(2-cyanopropan-2-yl)benzyl)-5-(N-methylsulfamoyl)thiophene-2-carboxamide] and `CC(C)(C#N)c1ccc(CNC(=O)c2ccc(S(C)(=O)=O)s2)cc1` [Compound 39, N-(4-(2-cyanopropan-2-yl)benzyl)-5-(methylsulfonyl)thiophene-2-carboxamide] fall in the same range of IC50: 1 to 20 µM for the first, 1 to 20 µM for the second.

`CS(=O)(=O)c1ccc(C(=O)NCc2ccc(C3CC3)cc2)s1` [Compound 31, N-(4-cyclopropylbenzyl)-5-(methylsulfonyl)thiophene-2-carboxamide] and `CNS(=O)(=O)c1ccc(C(=O)NCc2ccc(C3CC3)cc2)s1` [Compound 26, N-(4-cyclopropylbenzyl)-5-(N-methylsulfamoyl)thiophene-2-carboxamide] cannot be ordered by IC50: at most 1 µM for the first, at most 1 µM for the second.

`CNS(=O)(=O)c1ccc(C(=O)N[C@@H](C)c2ccc(Cl)cc2)s1` [Compound 5, (S)—N-(1-(4-chlorophenyl)ethyl)-5-(N-methylsulfamoyl)thiophene-2-carboxamide] and `CNS(=O)(=O)c1ccc(C(=O)N[C@@H](C)c2ccc(Cl)cc2Cl)s1` [Compound 2, (S)—N-(1-(2,4-dichlorophenyl)ethyl)-5-(N-methylsulfamoyl)thiophene-2-carboxamide] cannot be ordered by IC50: at most 1 µM for the first, at most 1 µM for the second.

`CNS(=O)(=O)c1ccc(C(=O)NCc2ccc(Cl)c(F)c2)s1` [Compound 20, N-(4-chloro-3-fluorobenzyl)-5-(N-methylsulfamoyl)thiophene-2-carboxamide] and `CNS(=O)(=O)c1ccc(C(=O)NCc2ccc(Cl)cc2F)s1` [Compound 10, N-(4-chloro-2-fluorobenzyl)-5-(N-methylsulfamoyl)thiophene-2-carboxamide] cannot be ordered by IC50: at most 1 µM for the first, at most 1 µM for the second.

`CC(C)(C)c1ccc(CNC(=O)c2ccc(S(C)(=O)=O)s2)cc1` [Compound 32, N-(4-(tert-butyl)benzyl)-5-(methylsulfonyl)thiophene-2-carboxamide] and `CNS(=O)(=O)c1ccc(C(=O)NCc2ccc(C(C)(C)C)cc2)s1` [Compound 28, N-(4-(tert-butyl)benzyl)-5-(N-methylsulfamoyl)thiophene-2-carboxamide] cannot be ordered by IC50: at most 1 µM for the first, at most 1 µM for the second.

`CS(=O)(=O)c1ccc(C(=O)NCc2ccc(C(F)(F)F)nc2)s1` [Compound 46, 5-(methylsulfonyl)-N-((6-(trifluoromethyl)pyridin-3-yl)methyl)thiophene-2-carboxamide] and `CS(=O)(=O)c1ccc(C(=O)NCc2ccc(C(F)(F)F)cc2)s1` [Compound 33, 5-(methylsulfonyl)-N-(4-(trifluoromethyl)benzyl)thiophene-2-carboxamide] cannot be ordered by IC50: 1 to 20 µM for the first, at most 1 µM for the second.

`CNS(=O)(=O)c1ccc(C(=O)NCc2ccc(Cl)cc2C(F)(F)F)s1` [Compound 8, N-(4-chloro-2-(trifluoromethyl)benzyl)-5-(N-methylsulfamoyl)thiophene-2-carboxamide] and `CNS(=O)(=O)c1ccc(C(=O)NCc2ccc(Cl)cc2O)s1` [Compound 14, N-(4-chloro-2-hydroxybenzyl)-5-(N-methylsulfamoyl)thiophene-2-carboxamide] cannot be ordered by IC50: at most 1 µM for the first, at most 1 µM for the second.

`CS(=O)(=O)c1ccc(C(=O)NCc2ccc(C(F)F)cc2)s1` [Compound 51, N-(4-(difluoromethyl)benzyl)-5-(methylsulfonyl)thiophene-2-carboxamide] and `Cc1cc(C(F)F)ccc1CNC(=O)c1ccc(S(C)(=O)=O)s1` [Compound 53, N-(4-(difluoromethyl)-2-methylbenzyl)-5-(methylsulfonyl)thiophene-2-carboxamide] cannot be ordered by IC50: at most 1 µM for the first, at most 1 µM for the second.

Going from `CNS(=O)(=O)c1ccc(C(=O)NCc2ccc(Br)cc2)s1` [Compound 21, N-(4-bromobenzyl)-5-(N-methylsulfamoyl)thiophene-2-carboxamide] to `CNS(=O)(=O)c1ccc(C(=O)NCc2ccc(OC(C)C)cc2)s1` [Compound 27, N-(4-isopropoxybenzyl)-5-(N-methylsulfamoyl)thiophene-2-carboxamide], the IC50 rises from at most 1 µM to at least 20 µM.

`COCCS(=O)(=O)c1ccc(C(=O)NCc2ccc(C(F)(F)F)cc2)s1` [Compound 52, 5-((2-methoxyethyl)sulfonyl)-N-(4-(trifluoromethyl)benzyl)thiophene-2-carboxamide] and `Cc1cc(C(F)(F)F)ccc1CNC(=O)c1ccc(S(C)(=O)=O)s1` [Compound 44, N-(2-methyl-4-(trifluoromethyl)benzyl)-5-(methylsulfonyl)thiophene-2-carboxamide] cannot be ordered by IC50: at most 1 µM for the first, at most 1 µM for the second.

`CNS(=O)(=O)c1ccc(C(=O)NCc2ccc(Cl)cc2OC)s1` [Compound 13, N-(4-chloro-2-methoxybenzyl)-5-(N-methylsulfamoyl)thiophene-2-carboxamide] and `CNS(=O)(=O)c1ccc(C(=O)NCc2ccc(Cl)cc2C)s1` [Compound 9, N-(4-chloro-2-methylbenzyl)-5-(N-methylsulfamoyl)thiophene-2-carboxamide] cannot be ordered by IC50: at most 1 µM for the first, at most 1 µM for the second.

`CC(C)Nc1ccc(CNC(=O)c2ccc(S(C)(=O)=O)s2)cc1` [Compound 41, N-(4-(isopropylamino)benzyl)-5-(methylsulfonyl)thiophene-2-carboxamide] and `CC(C)Oc1ccc(CNC(=O)c2ccc(S(C)(=O)=O)s2)cc1` [Compound 25, N-(4-isopropoxybenzyl)-5-(methylsulfonyl)thiophene-2-carboxamide] cannot be ordered by IC50: at least 20 µM for the first, at least 20 µM for the second.

`CNS(=O)(=O)c1ccc(C(=O)N[C@H](C)c2ccc(Cl)cc2Cl)s1` [Compound 1, (R)—N-(1-(2,4-dichlorophenyl)ethyl)-5-(N-methylsulfamoyl)thiophene-2-carboxamide] and `CS(=O)(=O)c1ccc(C(=O)NCc2ccc(C(F)(F)F)cc2F)s1` [Compound 42, N-(2-fluoro-4-(trifluoromethyl)benzyl)-5-(methylsulfonyl)thiophene-2-carboxamide] cannot be ordered by IC50: 1 to 20 µM for the first, at most 1 µM for the second.
